The results in this text go back to patent publication US20020115884A1, “Process for producing a hydrogenation product of an aromatic carboxylic acid” (priority 2000, published 2002).

A short description of this series: Solubility in water. It is filed as physicochemical.

Structures are written as SMILES.

For `O=C(O)c1ccc2cc(C(=O)O)ccc2c1` [2,6-naphthalenedicarboxylic acid], the Solubility in water is given as 0.03 g/100 g-water (Temperature 150° C.) and 0.21 g/100 g-water (Temperature 200° C.).

`O=C(O)c1ccc(-c2ccc(C(=O)O)cc2)cc1` [4,4′-biphenyldicarboxylic acid]: the Solubility in water is given as 0.01 g/100 g-water (Temperature 150° C.) and 0.04 g/100 g-water (Temperature 200° C.).

In the case of `O=C(O)c1cccc(C(=O)O)c1` [Isophthalic acid], the Solubility in water by setting is: (Temperature 150° C.) 2.7 g/100 g-water; (Temperature 200° C.) 24.2 g/100 g-water.

For `O=C(O)c1ccc(C(=O)O)cc1` [Terephthalic acid], the Solubility in water was found to be 0.25 g/100 g-water (Temperature 150° C.) and 1.7 g/100 g-water (Temperature 200° C.).
